From US20220184231A1, “CLOSED-ENDED DNA (CEDNA) AND IMMUNE MODULATING COMPOUNDS” (Generation Bio Co., priority 2019, published 2022)
“Also recorded” adds a separate entry of the source.

Experiments:
Assay type in all cases: in vivo
cytokines = assay: Cytokine analysis of serum samples after administration: other cytokines; details: male CD-1 mice, LNP-ceDNA 0.5 mg/kg i.v.; cytokines other than IL-6, TNF-alpha, RANTES
Description: (§1) FIGS. 6A, 6B and 6C provide graphs showing data from the experiments described in Example 6.

TNF-alpha = assay: Cytokine analysis of serum samples after administration: TNF-alpha; details: male CD-1 mice, LNP-ceDNA 0.5 mg/kg i.v.; relative to ceDNA treatment alone
Description: as §1

IL-6 = assay: Cytokine analysis of serum samples after administration: IL-6; details: male CD-1 mice, LNP-ceDNA 0.5 mg/kg i.v.; relative to ceDNA treatment alone
Description: as §1

[1] = tested on: luciferase transgene expression from ceDNA vector; assay: In-life IVIS imaging of luciferase expression from ceDNA vector; details: male CD-1 mice, LNP-ceDNA 0.5 mg/kg i.v., day 4 and day 7, compared with ceDNA/polyC group
Description: A ceDNA vector encoding luciferase as the transgene (e.g., SEQ ID NO: 56), with a wild-type AAV2 left ITR and a mutant right ITR and a hAAT promoter, methylated to eliminate free CpG, was used. The ceDNA vector was prepared as described above. […] Four replicates were included in each sample group. Body weights were recorded on days 0, 1, 2, 3, 7, 14, 21 and 28. In-life imaging was performed on days 4, 7, 14, 21, and 28 using an in vivo imaging system (IVIS). For the imaging, each mouse was injected with luciferin at 150 mg/kg via intraperitoneal injection at 2.5 mL/kg. After 15 minutes, each mouse was anaesthetized and imaged.

RANTES = assay: Cytokine analysis of serum samples after administration: RANTES; details: male CD-1 mice, LNP-ceDNA 0.5 mg/kg i.v.; relative to ceDNA treatment alone
Description: as §1

dexamethasone palmitate
levels of other cytokines (serum) (cytokines): not impacting
induction of TNF-alpha (serum level) (TNF-alpha): significantly less induction; also recorded: significantly reduced
induction of IL-6 (serum level) (IL-6): significantly less induction; also recorded: significantly reduced
total flux (luciferase expression from the ceDNA vector) [1]: no impact
induction of RANTES (serum level) (RANTES): significantly less induction; also recorded: significantly reduced
